Measurements taken from PMC5706701, “Development of a homogenous high-throughput assay for inositol hexakisphosphate kinase 1 activity” (PLoS ONE, 2017).
Structures can show the parent of a compound that is named as a salt. Where two headings read alike, the source gives them in different places.

Molecular target: T1, Human IP6K1 (Homo sapiens, UniProt Q92551)
T1 construct: GST (N, cleaved yes); made in house; host or cells: C43 E. coli, pGEX-6P-2
Assay: IP6K1 high-throughput screen of the Sigma LOPAC (ADP-Glo Max, single point);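 further: final compound concentration 10µM in 5% DMSO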
Format: biochemical

[1] = LOPAC single-point screen, ADP-Glo Max raw signal per well
[2] = LOPAC single-point screen, Z-score from raw signal with plate average and StDev
[3] = LOPAC single-point screen, Z-score against plate average and StDev
[4] = Sigma LOPAC single-point screen, ADP-Glo Max raw signal per well
[5] = Sigma LOPAC single-point screen, Z-score from plate average and StDev
[6] = LOPAC single-point screen, ADP-Glo Max luminescence raw signal per well
[7] = LOPAC single-point screen, Z-score relative to plate average and StDev
[8] = LOPAC single-point screen, Z-score from plate average and StDev

T1 sequence (Q92551 whole entry): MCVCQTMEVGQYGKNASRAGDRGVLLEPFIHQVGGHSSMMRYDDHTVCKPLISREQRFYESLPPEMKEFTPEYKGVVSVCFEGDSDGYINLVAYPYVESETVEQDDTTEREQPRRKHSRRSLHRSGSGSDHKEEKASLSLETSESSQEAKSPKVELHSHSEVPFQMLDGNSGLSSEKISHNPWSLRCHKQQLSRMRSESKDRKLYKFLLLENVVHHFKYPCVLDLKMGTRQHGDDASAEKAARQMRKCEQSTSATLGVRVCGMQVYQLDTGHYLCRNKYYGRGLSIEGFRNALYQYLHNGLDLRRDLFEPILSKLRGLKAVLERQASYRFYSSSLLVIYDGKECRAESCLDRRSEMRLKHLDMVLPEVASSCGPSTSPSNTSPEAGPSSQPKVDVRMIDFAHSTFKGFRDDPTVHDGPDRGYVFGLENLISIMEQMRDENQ

## NC(=O)COc1c(F)cc(SCCNS(=O)(=O)c2ccccc2)cc1F
[1]
  Raw Signal: 52796
[2]
  Z-score: -0.2684

## Oc1cc2c(cc1O)CN(C(=S)NCCc1ccc(Cl)cc1)CCC2 [Capsazepine]
[1]
  Raw Signal: 54995
[3]
  Z-score: -0.03494

## COc1cc(C(O)CO)ccc1OS(=O)(=O)[O-].[K+] (centres unmarked) [MHPG sulfate potassium]
[1]
  Raw Signal: 56093
[3]
  Z-score: 0.1881

## O=C(O)CCc1nc(-c2ccccc2)c(-c2ccccc2)o1 [Oxaprozin]
[4]
  Raw Signal: 57771
[5]
  Z-score: 0.5675

## C[C@]12CC[C@@H]3c4ccc(O)cc4CC[C@H]3[C@@H]1CC[C@@H]2O [beta-Estradiol]
[6]
  Raw Signal: 51790
[7]
  Z-score: -0.6858

## CP(=O)(O)CCCN.Cl [SKF 97541 hydrochloride]
[1]
  Raw Signal: 57179
[2]
  Z-score: -0.1293

## O=c1[nH]c2ccccc2c2ccccc12 [6(5H)-Phenanthridinone]
[1]
  Raw Signal: 55315
[2]
  Z-score: -0.1377

## O=C(O)CCCCC1CCSS1 (racemic) [(±)-alpha-Lipoic Acid]
[4]
  Raw Signal: 59328
[5]
  Z-score: 0.6419

## Cc1ccc(/C(=C\CN2CCCC2)c2ccccn2)cc1.Cl [Triprolidine hydrochloride]
[1]
  Raw Signal: 57463
[3]
  Z-score: 0.2796

## CC(C)NCC(O)COc1cccc2[nH]ccc12 (centres unmarked) [Pindolol]
[6]
  Raw Signal: 62809
[8]
  Z-score: 1.414

## CCNC(=O)N1CCN(CCCC(c2ccc(F)cc2)c2ccc(F)cc2)CC1 [Amperozide hydrochloride]
[6]
  Raw Signal: 52806
[7]
  Z-score: -0.8995

## CN[C@@H]1C[C@@H](c2ccc(Cl)c(Cl)c2)c2ccccc21 [Indatraline hydrochloride]
[1]
  Raw Signal: 53926
[3]
  Z-score: -0.07855

## Cc1ccc(=O)n(-c2ccccc2)c1 [Pirfenidone]
[1]
  Raw Signal: 52089
[2]
  Z-score: -0.3872

## NC/C=C\C(=O)O [cis-4-Aminocrotonic acid]
[6]
  Raw Signal: 52551
[7]
  Z-score: -0.6747

## Cl.Clc1ccc(Cn2c(CN3CCCC3)nc3ccccc32)cc1 [Clemizole hydrochloride]
[1]
  Raw Signal: 56495
[2]
  Z-score: -0.2498

## [Cl-].[Li+] [Lithium Chloride]
[4]
  Raw Signal: 59222
[5]
  Z-score: 0.8235

## C[C@H](Cc1ccccc1)Nc1ncnc2c1ncn2[C@@H]1O[C@H](CO)[C@@H](O)[C@H]1O [R(-)-N6-(2-Phenylisopropyl)adenosine]
[4]
  Raw Signal: 58463
[5]
  Z-score: 0.6838

## Cl.NC[C@@H]1O[C@H](C23CC4CC(CC(C4)C2)C3)Cc2c1ccc(O)c2O [A-77636 hydrochloride]
[1]
  Raw Signal: 56453
[2]
  Z-score: -0.2572

## O=c1nc2[nH]c3ccccc3nc-2c(=O)[nH]1 [Alloxazine]
[1]
  Raw Signal: 56241
[2]
  Z-score: -0.2945

## Cl.Cl.Cn1cnc(CCN)c1 [1-Methylhistamine dihydrochloride]
[1]
  Raw Signal: 52776
[2]
  Z-score: -0.2718

## Cc1cccc(C)c1OCC(C)N.Cl (centres unmarked) [Mexiletene hydrochloride]
[6]
  Raw Signal: 50431
[7]
  Z-score: -0.6658

## CN(C)CCC=C1c2ccccc2C=Cc2ccccc21 [Cyclobenzaprine hydrochloride]
[4]
  Raw Signal: 63136
[5]
  Z-score: 0.9199

## N#CC(C#N)=Cc1ccc(O)c(O)c1 [Tyrphostin 23]
[6]
  Raw Signal: 48444
[7]
  Z-score: -1.473

## COC(=O)C1=C(C)NC(C)=C(C(=O)OC)C1c1ccccc1[N+](=O)[O-] [Nifedipine]
[4]
  Raw Signal: 59653
[5]
  Z-score: 0.8837

## O=C([O-])c1cc2cc(Cc3cccnc3)ccc2o1.[Na+] [Furegrelate sodium]
[1]
  Raw Signal: 53193
[2]
  Z-score: -0.4009

## COc1cc2c(CCNC(C)=O)c[nH]c2cc1O [6-Hydroxymelatonin]
[6]
  Raw Signal: 52038
[7]
  Z-score: -0.6355

## CC(C)(C)c1ccc(S(=O)(=O)/C=C/C#N)cc1 [Bay 11-7085]
[1]
  Raw Signal: 58167
[3]
  Z-score: 0.04472

## Cl.c1ccc(CN(CC2=NCCN2)c2ccccc2)cc1 [Antozoline hydrochloride]
[6]
  Raw Signal: 54212
[7]
  Z-score: -0.6519

## COc1ccccc1N1CCN(CCN(C(=O)c2ccc(F)cc2)c2ccccn2)CC1.Cl.Cl [p-MPPF dihydrochloride]
[1]
  Raw Signal: 52235
[2]
  Z-score: -0.3627

## N[C@@H]1C[C@H]1c1ccccc1 [Tranylcypromine hydrochloride]
[1]
  Raw Signal: 55566
[3]
  Z-score: -0.08894

## O=c1[nH]c2cc(Cl)ccc2c(O)c1-c1cccc(Oc2ccccc2)c1 [L-701,324]
[6]
  Raw Signal: 49431
[7]
  Z-score: -0.8338

## CC1=C(C(=O)O)N2C(=O)[C@@H](NC(=O)[C@H](N)c3ccccc3)[C@H]2SC1.O [Cephalexin hydrate]
[4]
  Raw Signal: 61524
[5]
  Z-score: 0.636

## CC(C)NCC(O)c1ccc(NS(C)(=O)=O)cc1.Cl (racemic) [(±)-Sotalol hydrochloride]
[1]
  Raw Signal: 55236
[2]
  Z-score: -0.1531

## N[C@H](C(=O)O)c1cc(O)no1 (racemic) [(±)-Ibotenic acid]
[4]
  Raw Signal: 57640
[5]
  Z-score: 0.5455

## COc1ccc(/C=C/C(=O)Nc2ccccc2C(=O)O)cc1OC [Tranilast]
[6]
  Raw Signal: 68948
[8]
  Z-score: 2.511

## CCCCC/C=C\C[C@@H](O)/C=C/c1cccc(C[C@@H](O)CCCCO)n1 [U-75302]
[6]
  Raw Signal: 63793
[8]
  Z-score: 1.509

## Cl.O=C(Cc1ccc(Cl)c(Cl)c1)N1CCCCC1CN1CCCC1 (centres unmarked) [BRL 52537 hydrochloride]
[1]
  Raw Signal: 55058
[2]
  Z-score: -0.1876

## Nn1nnc2ccccc21 [1-Aminobenzotriazole]
[6]
  Raw Signal: 53212
[7]
  Z-score: -0.828

## CC(N)(Cc1ccc(O)cc1)C(=O)O (racemic) [DL-alpha-Methyl-p-tyrosine]
[6]
  Raw Signal: 72995
[8]
  Z-score: 2.656

## Nc1ncnc2c1ncn2[C@@H]1O[C@H](COP(=O)(O)OP(=O)(O)OP(=O)(O)OP(=O)(O)OC[C@H]2O[C@@H](n3cnc4c(N)ncnc43)[C@H](O)[C@@H]2O)[C@@H](O)[C@H]1O
[1]
  Raw Signal: 55437
[3]
  Z-score: 0.05483

## CN1CCCC1c1cccnc1.Cc1ccc(C(=O)OC(C(=O)O)C(OC(=O)c2ccc(C)cc2)C(=O)O)cc1 (stereo not drawn) [(+)-Nicotine (+)-di-p-toluoyl tartrate]
  Raw Signal: 52925
  Z-score: -0.2467

## CC1=C(CC(=O)O)c2cc(F)ccc2/C1=C\c1ccc([S+](C)[O-])cc1 (centres unmarked) [Sulindac]
[6]
  Raw Signal: 51494
[7]
  Z-score: -0.8801

## CCN1CCCC1CNC(=O)c1cc(S(N)(=O)=O)ccc1OC (racemic) [(±)-Sulpiride]
[6]
  Raw Signal: 63231
[8]
  Z-score: 1.4

## CC#CCOC(=O)c1c(C)nc2sc3c(c2c1N)CCC(O)C3 (centres unmarked) [SB 205384]
[4]
  Raw Signal: 57931
[5]
  Z-score: 0.3705

## NS(=O)(=O)c1cc2c(cc1Cl)N=CNS2(=O)=O [Chlorothiazide]
[6]
  Raw Signal: 49210
[7]
  Z-score: -1.533

## NC(N)=NCc1cccc(I)c1.NC(N)=NCc1cccc(I)c1.O=S(=O)(O)O [m-Iodobenzylguanidine hemisulfate]
[4]
  Raw Signal: 60474
[5]
  Z-score: 1.022

## CC1=C(/C=C/C(C)=C/C=C/C(C)=C/C=C/C=C(C)/C=C/C=C(C)/C=C/C2=C(C)C(=O)[C@@H](O)CC2(C)C)C(C)(C)C[C@H](O)C1=O [Astaxanthin]
[1]
  Raw Signal: 57440
[3]
  Z-score: -0.08333

## COc1ccc2c(c1)c(CC(=O)O)c(C)n2Cc1ccc(F)cc1
[1]
  Raw Signal: 54531
[2]
  Z-score: -0.1292

## Cc1nc2c(OCc3ccccc3)cccn2c1CC#N [SCH-28080]
[6]
  Raw Signal: 49264
[7]
  Z-score: -1.199

## CCCCCCCCCCCCCCCCCC(=O)NCC(COP(=O)([O-])OCC[N+](C)(C)C)OCC (racemic)
[6]
  Raw Signal: 62966
[8]
  Z-score: 1.584

## O=C(O)C1=CCCNC1 [Guvacine hydrochloride]
[1]
  Raw Signal: 56288
[3]
  Z-score: 0.2277

## C/C(=C\c1ccc(C(=O)O)cc1)c1ccc2c(c1)C(C)(C)CCC2(C)C [TTNPB]
[1]
  Raw Signal: 53849
[2]
  Z-score: -0.4225

## CCCN1C[C@H](CSC)C[C@@H]2c3cccc4[nH]cc(c34)C[C@H]21 [Pergolide methanesulfonate]
[1]
  Raw Signal: 53757
[2]
  Z-score: -0.4404

## CN(C)CCCN1c2ccccc2CCc2ccccc21 [Imipramine hydrochloride]
[1]
  Raw Signal: 53704
[2]
  Z-score: -0.1159

## C[C@H]1C[C@H]2[C@@H]3CCC4=CC(=O)C=C[C@]4(C)[C@@]3(Cl)[C@@H](O)C[C@]2(C)[C@@]1(O)C(=O)CO [Beclomethasone]
[1]
  Raw Signal: 55439
[2]
  Z-score: -0.4358

## C#CCn1c(=O)c2c(ncn2C)n(C)c1=O [3,7-Dimethyl-I-propargylxanthine]
[6]
  Raw Signal: 50513
[7]
  Z-score: -0.9452

## CCCn1c(=O)c2c(ncn2C)n(CCC)c1=O [1,3-Dipropyl-7-methylxanthine]
[4]
  Raw Signal: 58298
[5]
  Z-score: 0.6359

## O=C(CCCN1CC=C(n2c(=O)[nH]c3ccccc32)CC1)c1ccc(F)cc1 [Droperidol]
[6]
  Raw Signal: 49359
[7]
  Z-score: -1.18

## NNC(=O)c1ccc(O)cc1 [4-Hydroxybenzhydrazide]
[4]
  Raw Signal: 59100
[5]
  Z-score: 0.7987

## O=[N+]([O-])c1cccc2cn[nH]c12 [7-Nitroindazole]
[1]
  Raw Signal: 55532
[3]
  Z-score: 0.1913

## COc1ccc(CN(CCN(C)C)c2ccccn2)cc1 [Pyrilamine maleate]
[4]
  Raw Signal: 60252
[5]
  Z-score: 0.9844

## Oc1ccc(/C=C/c2cc(O)cc(O)c2)cc1 [Resveratrol]
[1]
  Raw Signal: 54146
[2]
  Z-score: -0.3648

## O=C1CC[C@@]2(O)[C@H]3Cc4ccc(O)c5c4[C@@]2(CCN3CC2CC2)[C@H]1O5 [Naltrexone hydrochloride]
[1]
  Raw Signal: 52231
[2]
  Z-score: -0.3634

## O=C1C=CC(=O)C=C1 [p-Benzoquinone]
[6]
  Raw Signal: 51681
[7]
  Z-score: -1.098
